Here are results for 1 substance from US20140377216A1, “ANTICANCER FUSION PROTEIN” (ADAMED SP. Z.O.O., priority 2011, published 2014).

The assay relates to human lung cancer NCI-H460-Luc2. Briefly: Lung cancer model, Experiment C: NCI-H460-Luc2 xenograft. The class given is in vivo, Crl:SHO-PrkdcscidHrhr mice. The conditions noted are these: 20 mg/kg i.v. 6 times every second day, 29 day. The procedure:
Tumor size was measured using electronic calliper, tumor volume was calculated using the formula: (a^2×b)/2, where a=shorter diagonal of the tumor (mm) and b=longer diagonal of the tumor (mm). Inhibition of tumor growth was calculated using the formula:
TGI[%](Tumor growth inhibition)=(WT/WC)×100−100%
wherein WT is the average tumor volume in the treatment group, and WC is the average tumor volume in the control group.
On day 0 Crl:SHO-Prkdc^scidHr^hr mice were grafted subcutaneously (s.c.) in the right side with 5×10^6 of NCI-H460-Luc2 cells suspended in 0.1 ml of HBSS buffer using syringe with a needle 0.5×25 mm (Bogmark). On the 11 day of the experiment mice were randomized to obtain the average size of tumors in the group of ˜100-120 mm^3 and assigned to treatment groups. The treatment groups were administered with the preparations of fusion protein of the invention of Ex. 11^a (40 mg/kg and 30 mg/kg), and rhTRAIL114-281 (20 mg/kg) as a comparison against formulation buffer (19 mM NaH2PO4, 81 mM Na2HPO4, 50 mM NaCl, 5 mM glutathione, 0.1 mM ZnCl2, 10% glycerol, pH 7.4) as a control. The preparations were administered intravenously (i.v) 6 times once daily every second day (in case of fusion protein of the invention of Ex. 11^a first administration at a dose 40 mg/kg and subsequent at 30 mg/kg. On the 29 day of the experiment mice were sacrificed by disruption of the spinal cord.

In the case of “rhTRAIL114-281: recombinant human soluble TRAIL, amino acids 114-281 of hTRAIL, used as comparative reference”, the “TGI (tumor growth inhibition) relative to the control” value worked out at 76%.
